In series [1] the target is 5-hydroxytryptamine receptor 2A (Homo sapiens) (UniProt P28223). The experiment in a line: Agonist activity at Homo sapiens (human) 5-HT2A receptor assessed as 5-HT-induced phosphoinositide hydrolysis by cell based assay. Also on record: scale not given: the % may be the effect or the level left.
Series [2] deals with T1, 5-hydroxytryptamine receptor 2C (Homo sapiens) (UniProt P28335).
T1 sequence (whole entry): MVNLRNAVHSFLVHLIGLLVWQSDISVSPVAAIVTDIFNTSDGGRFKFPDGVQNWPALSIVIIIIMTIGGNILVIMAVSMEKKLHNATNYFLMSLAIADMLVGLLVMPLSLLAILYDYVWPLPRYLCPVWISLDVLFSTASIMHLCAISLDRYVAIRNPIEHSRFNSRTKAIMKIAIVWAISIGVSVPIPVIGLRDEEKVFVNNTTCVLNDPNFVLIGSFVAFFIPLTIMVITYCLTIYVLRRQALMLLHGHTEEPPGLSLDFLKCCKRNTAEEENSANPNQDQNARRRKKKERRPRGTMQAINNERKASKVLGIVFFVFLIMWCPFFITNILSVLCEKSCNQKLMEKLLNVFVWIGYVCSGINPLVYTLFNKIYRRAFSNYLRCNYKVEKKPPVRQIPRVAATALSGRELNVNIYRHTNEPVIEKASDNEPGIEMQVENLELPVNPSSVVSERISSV
Kind of series: (§1) Agonist activity at Homo sapiens (human) 5-HT2C receptor assessed as 5-HT-induced calcium mobilization by cell based assay. In kind it is functional. In general terms: A change in cytosolic calcium serves as a functional read-out for many receptors and channels.

Series [3] concerns the target T2, 5-hydroxytryptamine receptor 2C (Homo sapiens, UniProt P28335).
T2 sequence (P28335 whole entry): T1 sequence (whole entry)
The experiment in a line: Agonist activity at Homo sapiens (human) 5-HT2C receptor.

In series [4] the test system is Mus musculus. Kind of series: Protective index, ratio of TD50 for ip dosed Mus musculus (mouse) to ED50 for ip dosed Mus musculus (mouse) assessed as inhibition of maximal electroshock-induced seizure. In kind it is functional. For orientation: Protection in the maximal electroshock model is a classic sign of anticonvulsant action.
For series [5], the system named is Rattus norvegicus. Kind of series: Protective index, ratio of TD50 for po dosed Rattus norvegicus (rat) to ED50 for anticonvulsant activity in po dosed rat assessed as inhibition of maximal electroshock-induced seizure. The series is classed as functional.
In series [6] the test system is Mus musculus. The experiment in a line: Anticonvulsant activity in ip dosed Mus musculus (mouse) assessed as inhibition of maximal electroshock-induced seizure after 1 hr. In kind it is functional.
Series [7] has as its system Rattus norvegicus. The experiment in a line: Anticonvulsant activity in po dosed Rattus norvegicus (rat) assessed as inhibition of maximal electroshock-induced seizure after 1 hr. In kind it is functional.
The target in series [8] is T2, 5-hydroxytryptamine receptor 2C. The series is described as §1. The series is classed as functional.
The test system of series [9] is Rattus norvegicus. The experiment in a line: Anticonvulsant activity in ip dosed Rattus norvegicus (rat) assessed as inhibition of maximal electroshock-induced seizure. The series is classed as functional.
Series [10] deals with Rattus norvegicus. Kind of series: Protective index, ratio of TD50 for ip dosed Rattus norvegicus (rat) to ED50 for ip dosed rat assessed as inhibition of maximal electroshock-induced seizure. The series is classed as functional.
Series [11] concerns Rattus norvegicus. The experiment in a line: Anticonvulsant activity in ip dosed Rattus norvegicus (rat) assessed as inhibition of subcutaneous pentylene tetrazole-induced seizure. In kind it is functional.
The subject of series [12] is Rattus norvegicus. Kind of series: Anticonvulsant activity in po dosed Rattus norvegicus (rat) assessed as inhibition of maximal electroshock-induced seizure after 5 hr. In kind it is functional.
In series [13] the test system is Mus musculus. Kind of series: Anticonvulsant activity in ip dosed Mus musculus (mouse) assessed as inhibition of maximal electroshock-induced seizure. The series is classed as functional. Conditions: for ED50: Mus musculus, ip.
Series [14] can be described thus: Toxicity in ip dosed maximal electroshock-induced seizure Mus musculus (mouse) model. The series is classed as organism-based. Conditions: in vivo.
The nature of series [15]: Toxicity in po dosed maximal electroshock-induced seizure Rattus norvegicus (rat) model. In kind it is organism-based. Conditions: in vivo.
Series [16] concerns the target T2, 5-hydroxytryptamine receptor 2C. The experiment in a line: Agonist activity at Homo sapiens (human) 5-HT2C receptor assessed as calcium mobilization by cell based assay. In kind it is functional.
The subject of series [17] is Rattus norvegicus. Kind of series: Anticonvulsant activity in po dosed Rattus norvegicus (rat) assessed as inhibition of maximal electroshock-induced seizure after 4 hr. The series is classed as functional.
Series [18] can be described thus: Oral bioavailability in Rattus norvegicus (rat). Conditions: in vivo. The series is classed as ADME, organism-based.
In series [19] the test system is Rattus norvegicus. The experiment in a line: Anticonvulsant activity in po dosed Rattus norvegicus (rat) assessed as inhibition of maximal electroshock-induced seizure after 0.5 hr. In kind it is functional.
In series [20] the test system is Mus musculus. The experiment in a line: Anticonvulsant activity in ip dosed Mus musculus (mouse) assessed as inhibition of maximal electroshock-induced seizure after 0.25 hr. In kind it is functional.
Series [21] concerns Mus musculus. Kind of series: Anticonvulsant activity in ip dosed Mus musculus (mouse) assessed as inhibition of subcutaneous pentylene tetrazole-induced seizure. In kind it is functional.
The species entered for series [22] is Rattus norvegicus. The experiment in a line: Anticonvulsant activity in Rattus norvegicus (rat) assessed as inhibition of maximal electroshock-induced seizure. The series is classed as functional.
Series [23] is filed under the species Mus musculus. Kind of series: Anticonvulsant activity in Mus musculus (mouse) assessed as inhibition of maximal electroshock-induced seizure. In kind it is functional.
Series [24] has as its system Mus musculus. Kind of series: Anticonvulsant activity in ip dosed Mus musculus (mouse) assessed as inhibition of subcutaneous metrazol-induced seizure. In kind it is functional.
The species entered for series [25] is Mus musculus. The experiment in a line: Protective index, ratio of TD50 for Mus musculus (mouse) to […] for Mus musculus (mouse) assessed as inhibition of maximal electroshock-induced seizure. The series is classed as functional.

The structures appear in SMILES notation.

A word on the EC50: it is the concentration at which the effect is half-maximal. Broadly, the ED50 is the dose at which the effect has come halfway, by size or by number of responders. The term TD50 denotes the dose at which the toxic effect under study appears in half of the subjects. As usually defined, the bioavailability is dose-corrected exposure relative to a reference, in per cent.

Chain of 5-hydroxytryptamine receptor 2A (Homo sapiens) (P28223 whole entry): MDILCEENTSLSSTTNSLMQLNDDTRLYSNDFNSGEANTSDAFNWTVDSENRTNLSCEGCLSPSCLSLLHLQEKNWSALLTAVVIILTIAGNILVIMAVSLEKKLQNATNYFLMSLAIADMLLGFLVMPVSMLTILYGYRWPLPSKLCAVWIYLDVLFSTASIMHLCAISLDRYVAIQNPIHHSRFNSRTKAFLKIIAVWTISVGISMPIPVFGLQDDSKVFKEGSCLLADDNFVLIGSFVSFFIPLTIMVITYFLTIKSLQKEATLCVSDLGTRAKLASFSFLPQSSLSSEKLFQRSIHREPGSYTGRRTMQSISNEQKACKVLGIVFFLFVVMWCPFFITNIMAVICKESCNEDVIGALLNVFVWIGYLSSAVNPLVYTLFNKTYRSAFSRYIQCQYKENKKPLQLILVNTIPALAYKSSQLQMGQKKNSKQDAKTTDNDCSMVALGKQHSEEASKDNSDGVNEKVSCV

As to `CCc1cc2c(ccc3cnn(C[C@H](C)N)c32)o1`, the Activity in series [1] stood at 97%.

For the compound `Cc1noc(C)c1COc1cc(F)c(COC(=O)N2[C@H](C)CNC[C@@H]2C)c(F)c1`, the Activity in [2] worked out at 91%.

With `C1CC2CNCCN3C2C(C1)[C@H]1CCC[C@H]13` (stereo partly drawn), in [3], the EC50 is 76 nM.

With `CC(=O)NC(C)C(=O)NCc1ccccc1` (stereo not drawn), the “Ratio TD50/ED50” value is 5.9 with Mus musculus [4] and above 20 with Rattus norvegicus [5]. Further, the ED50 in the series with Mus musculus [6] came to 77 mg/kg; in the series with Rattus norvegicus [7] it was 48 mg/kg.

Take `CCOc1ccc2c(c1)c(C[C@H](C)N)c1n2CCC1`: the Activity in series [2] was determined as 87%. The EC50 in series [8] stood at 4 nM.

Take `O=C(NCc1ccccc1F)c1ccccn1` [PICOLINIC ACID FLUOROBENZYLAMIDE]: the ED50 in the series on Rattus norvegicus [9] was 14.7 mg/kg; with Rattus norvegicus [11], above 50 mg/kg. For the same compound, the “Ratio TD50/ED50” value in the series with Rattus norvegicus [10] is on record as below 3.4.

The compound `Clc1ccc(-c2ccc(-c3cc4c5c(c3)[C@@H]3CNC[C@@H]3N5CCCS4)cc2)c(Cl)c1` came in with an EC50 in series [3] of 3 nM.

For the compound `CCC1(c2ccccc2)C(=O)NC(=O)NC1=O` [PHENOBARBITAL], the ED50 in the series with Rattus norvegicus [12] stood at 9.1 mg/kg; in the series with Mus musculus [6], 22 mg/kg.

For the compound `COC(=O)C1C(=O)C=C(Nc2cc(C)on2)CC1C` (stereo not drawn), the ED50 in the series with Mus musculus [13] came to 68.9 mg/kg. For the same compound, in the series on Mus musculus [4], the “Ratio TD50/ED50” value is above 7.3. For the same compound, the TD50 in series [14] is above 500 mg/kg.

`Cc1cc(NC2=CC(=O)C(C(=O)OC(C)(C)C)C(C)C2)no1` (stereo not drawn) yielded a TD50 in series [15] above 500 mg/kg. The “Ratio TD50/ED50” value in the series with Rattus norvegicus [5] was above 17.8.

Turning to `Cc1c2n(c3c(C)c(Cl)ccc13)C(C)NCC2` (stereo not drawn), the concentration giving a half-maximal response (EC50) in series [16] was 0.4 nM.

`O=C1NC(=O)C(c2ccccc2)(c2ccccc2)N1` [PHENYTOIN]: the ED50 with Rattus norvegicus [17] came to 30 mg/kg.

For `C[C@H]1CN(c2ccc(C(F)(F)F)c3ccoc23)CCN1`, in series [18], the bioavailability is 83%.

In series [15], `CC(=O)NN(C(=O)NCc1ccccc1)c1nccs1` returned a TD50 above 250 mg/kg. The results for the ED50 with Rattus norvegicus [19] and in the series with Mus musculus [20] were 6.2 mg/kg and 22 mg/kg, respectively. In addition, the figures for the “Ratio TD50/ED50” value in the series on Mus musculus [4] and with Rattus norvegicus [5] were 5.4 and above 40, respectively.

Take `CCNc1nnc(-c2ccccc2O)s1`: in the series on Mus musculus [13], the “inhibition (INH)” value came out at 90%.

For the compound `CCOC(=O)C1C(=O)C=C(Nc2cc(C)on2)CC1C` (stereo not drawn), in series [15], the TD50 was above 500 mg/kg. Besides, the “Ratio TD50/ED50” value with Rattus norvegicus [5] is recorded as above 49.6.

`Oc1ccccc1-c1nnc(Nc2cccc(F)c2)s1`: the “inhibition (INH)” value in the series with Mus musculus [13] worked out at 70%.

Regarding `CCCC(CCC)C(=O)[O-].[Na+]` [VALPROATE SODIUM], the “inhibition (INH)” value with Mus musculus [21] came out at 80%.

For the compound `CC1(C)C(C(=O)NC(N)=O)C1(C)C` [2,2,3,3-TETRAMETHYLCYCLOPROPANECARBONYLUREA], the median effective dose (ED50) in the series listed under Rattus norvegicus [22] came out at 29 mg/kg; in the series filed under Mus musculus [23], 90 mg/kg.

For `O=C1NCCCCC1(O)c1ccccc1` (stereo not drawn), the ED50 turned out to be 63 mg/kg in the series on Mus musculus [13] and 74 mg/kg in the series with Mus musculus [24].

As to `O=C1CC2(CCCC2)C(=O)N1OCc1ccccc1`, in the series listed under Mus musculus [25], the PI is recorded as above 4.5.

Source of the values: ChEMBL document CHEMBL3046768, “New antiepileptic agents: structureactivity relationships” (Med Chem Res, 2012).
